Test results taken from patent publication US12433964B2, “Antiviral and antibacterial disinfection aero-solution using edible food dyes” (Purdue Research Foundation, priority 2020, dated 2025).

Test: Lifetime (photobleaching) of photosensitizers by fluorescent emission monitoring
Format: physicochemical
Conditions: for complete photobleaching after (lifetime): 5 μM aqueous solution, green laser 532 nm 6.3 mW cm^−2 / white LED 2400 lux; for lasting time of singlet oxygen generation: estimated for standard illumination level of 500 lux
Protocol: To test the lifetime of photosensitizers, we monitored the fluorescent emission of Rose Bengal and Erythrosine, respectively. FIG. 10a is a graph of normalized intensity vs wavelength showing absorption and fluorescence for Rose Bengal and Erythrosine. 0.5-mL aqueous solutions of each photosensitizer were put into a cuvette and then the fluorescent spectrum was measured using a fiber bundle-coupled spectrometer (VS140 VIS-NIR; Horiba Jobin Yvon Inc., Edison, NJ, USA). […] Lifetime of Rose Bengal is longer than that of Erythrosine, showing complete photobleaching after 120 min (60 min for Erythrosine). Both are also activated by a white LED with 2400 lux. Considering that the standard illumination level of normal workstation spaces is 500 lux, the lasting time of singlet oxygen generation for Rose Bengal and Erythrosine can be estimated to be about 9.6 and 4.8 hours, respectively.

| Compound | complete photobleaching after (lifetime) [min] | lasting time of singlet oxygen generation |
| --- | --- | --- |
| Erythrosine [FD&C RED No. 3] | 60 | ~4.8 h |
| O=C([O-])c1c(Cl)c(Cl)c(Cl)c(Cl)c1-c1c2cc(I)c(=O)c(I)c-2oc2c(I)c([O-])c(I)cc12.[Na+].[Na+] [FD&C RED No. 105, Rose Bengal] | 120 | about 9.6 hours |
